Drawing on PMC4820820, “CETSA screening identifies known and novel thymidylate synthase inhibitors and slow intracellular activation of 5-fluorouracil” (Nature Communications, 2016), this text covers IC50 for 1 compound.

For the assay, the system named is K562 cells. The assay can be described thus: Cell viability assay (CellTiter-Glo). It counts as cell-based. The conditions noted are these: Homo sapiens. The procedure: A concentration–response curve of CBK115334 was generated using the Bravo liquid handling system (serial dilution of a 50 mM stock solution was done in 100% DMSO). A total of 150 nl of the serially diluted solutions and controls (positive control 0.67 mM staurosporine and negative control DMSO) were transferred to a white 384-well assay plate (3570, Corning) by means of acoustic dispensing (Echo 550, Labcyte). A Multidrop reagent dispenser (Thermo Scientific) was used to dispense 30 μl of a K562 cell suspension at a density of 33 × 10^3 cells per ml in supplemented cell culture medium. The cells were incubated at 37 °C in the presence of 5% CO2 for 72 h before addition of 30 μl CellTiter-Glo Luminescent Cell Viability Assay reagent (Promega) using a Multidrop Combi reagent dispenser (Thermo Scientific). The plate was placed on a plate shaker for 15 min prior to detection of the luminescence signal in an Envision plate reader (PerkinElmer). The final highest concentration of CBK115334 in the incubation with cells was 250 μM and the final concentration of the positive control staurosporine was 3 μM. All samples contained 0.5% DMSO. The data were analyzed using microsoft excel and GraphPad Prism 6.

Like-named read-outs stand apart in the source and are kept apart here. A value given as a limit tells only on which side of the number the result lay.

Regarding `Cc1cc(O)nc2sc(C(=O)c3ccccc3)c(N)c12` [CBK115334, 3-amino-2-benzoyl-4-methylthieno(2,3-b)pyridin-6-ol], the IC50 was 88 ± 15 µM (72 hours incubation, read-out: IC50 cell viability) and less than 100 µM (read-out: IC50 cell proliferation).
